How the values were obtained:
[1] = Antiproliferative activity against human KB/S cells assessed as reduction in cell growth after 72 hrs by MTT assay; format: functional, cell-based
KB/VJ300 [2] = experiment: Antiproliferative activity against human KB/VJ300 cells assessed as reduction in cell growth after 72 hrs by MTT assay; format: functional, cell-based; conditions: KB/VJ300, 72 h
PC-3 = experiment: Antiproliferative activity against human PC3 cells assessed as reduction in cell growth after 72 hrs by MTT assay; format: functional, cell-based; conditions: PC-3, 72 h
MCF7 = experiment: Antiproliferative activity against human MCF7 cells assessed as reduction in cell growth after 72 hrs by MTT assay; format: functional, cell-based; conditions: MCF7, 72 h
MDA-MB-231 = experiment: Antiproliferative activity against human MDA-MB-231 cells assessed as reduction in cell growth after 72 hrs by MTT assay; format: functional, cell-based; conditions: MDA-MB-231, 72 h
HT-29 = experiment: Antiproliferative activity against human HT-29 cells assessed as reduction in cell growth after 72 hrs by MTT assay; format: functional, cell-based; conditions: HT-29, 72 h
HCT-116 = experiment: Antiproliferative activity against human HCT116 cells assessed as reduction in cell growth after 72 hrs by MTT assay; format: functional, cell-based; conditions: HCT-116, 72 h
A549 = experiment: Antiproliferative activity against human A549 cells assessed as reduction in cell growth after 72 hrs by MTT assay; format: functional, cell-based; conditions: A549, 72 h
CCD-18Co = experiment: Cytotoxicity against human CCD-18Co cells assessed as reduction in cell growth after 72 hrs by MTT assay; format: cell-based
KB/VJ300 [3] = experiment: Antiproliferative activity against human vincristine-rsistant KB/VJ300 cells assessed as reduction in cell growth after 72 hrs by MTT assay; format: functional, cell-based; conditions: KB/VJ300, 72 h
LNCaP = experiment: Antiproliferative activity against human LNCAP cells assessed as reduction in cell growth after 72 hrs by MTT assay; format: functional, cell-based
MRC5 = experiment: Cytotoxicity against human MRC5 cells assessed as reduction in cell growth after 72 hrs by MTT assay; format: cell-based; conditions: MRC5, 72 h

SMILES | IC50 (KB/VJ300 [2]) [µM] | IC50 (PC-3) [µM] | IC50 (MCF7) [µM] | IC50 (MDA-MB-231) [µM] | IC50 (HT-29) [µM] | IC50 (HCT-116) [µM] | IC50 (A549) [µM] | IC50 (KB/VJ300 [3]) [µM] | IC50 (LNCaP) [µM] | IC50 [1] [µM] | IC50 (CCD-18Co) [µM] | IC50 (MRC5) [µM]
COc1ccc(CCN(C)CCCC(C#N)(c2ccc(OC)c(OC)c2)C(C)C)cc1OC (stereo not drawn) [VERAPAMIL] |  |  |  |  |  |  |  | 0.4 |  |  |  | 
C/C=C1/CN2[C@H]3C[C@@H]1[C@@H](CO)[C@@H]2Cc1c3n(C)c2ccc(OC)c(CC3=C(C)OC[C@@H]4[C@H]3C[C@H]3c5c(c6ccccc6n5C)C[C@@H]4N3C)c12 | 5.9 | 6.1 | 2 | 4.8 | 0.07 | 4.2 | 9 |  |  | 2.8 | 9.7 | 
C/C=C1/CN2[C@H]3C[C@@H]1[C@@H](CO)[C@@H]2Cc1c3n(C)c2cc(C(C)C3=COC[C@@H]4[C@H]3C[C@H]3c5c(c6ccccc6n5C)C[C@@H]4N3C)c(OC)cc12 (stereo partly drawn) | 6.7 | 8.2 | 4.5 | 4.5 | 0.3 | > 10 | 7 | 0.2 | 6.2 | 0.6 |  | 7.9
C/C=C1/CN2[C@H]3C[C@@H]1[C@@H](CO)[C@@H]2Cc1c3n(C)c2cc(C[C@@H]3[C@@H]4C[C@H]5c6c(c7ccccc7n6C)C[C@@H]([C@@H]4CO[C@]3(C)OC)N5C)c(OC)cc12 | > 10 | > 10 | 5.3 | 4.8 | 0.07 | > 10 | > 10 | 3.9 | 3.7 | 1.1 |  | > 10

More lines, main results first:

IC50 (KB/VJ300 [2]) [µM] | IC50 (PC-3) [µM] | IC50 (MCF7) [µM] | IC50 (MDA-MB-231) [µM] | IC50 (HT-29) [µM] | IC50 (HCT-116) [µM] | IC50 (A549) [µM] | IC50 (KB/VJ300 [3]) [µM] | IC50 (LNCaP) [µM] | SMILES | IC50 [1] [µM] | IC50 (CCD-18Co) [µM] | IC50 (MRC5) [µM]
2.9 | 3.1 | 1.3 | 1.4 | 0.03 | 2.9 | 6.8 |  |  | C/C=C1/CN2[C@H]3C[C@@H]1[C@@H](CO)[C@@H]2Cc1c3n(C)c2cc(C[C@H]3[C@@H]4C[C@H]5c6c(c7ccccc7n6C)C[C@@H]([C@@H]4CO[C@]3(C)OC)N5C)c(OC)cc12 | 2.4 | 4.3 | 
0.8 |  |  |  |  |  |  |  |  | CC[C@]1(O)C[C@H]2CN(CCc3c([nH]c4ccccc34)[C@@](C(=O)OC)(c3cc4c(cc3OC)N(C=O)[C@H]3[C@@](O)(C(=O)OC)[C@H](OC(C)=O)[C@]5(CC)C=CCN6CC[C@]43[C@@H]65)C2)C1 [VINCRISTINE] | 0.0008 |  | 
3.6 | > 10 | 8.5 | > 10 | 0.02 | 2.1 | 3 | 4.2 |  | C/C=C1/CN2[C@H]3C[C@@H]1[C@@H](CO)[C@@H]2Cc1c3n(C)c2cc(C[C@@H](C(C)=O)[C@@H]3C[C@H]4c5c(c6ccccc6n5C)C[C@@H]([C@@H]3CO)N4C)c(OC)cc12 | 1.7 | 5.1 | 
5.5 | > 10 | 7.7 | 4.1 | 0.03 | 1.5 | 3.9 | 8.8 |  | C/C=C1/CN2[C@H]3C[C@@H]1[C@@H](CO)[C@@H]2Cc1c3n(C)c2ccc(OC)c(C[C@@H](C(C)=O)[C@@H]3C[C@H]4c5c(c6ccccc6n5C)C[C@@H]([C@@H]3CO)N4C)c12 | 2.5 | 4.1 | 
